Results taken from article PMC10376059, “New NADPH Oxidase 2 Inhibitors Display Potent Activity against Oxidative Stress by Targeting p22^phox-p47^phox Interactions” (Antioxidants, 2023).

What was measured:
MTT cytotoxicity assay = assay type: cell-based, human; conditions: human; neutrophil-differentiated HL-60 cells, 72 h, 100 µM
Method: (§1) To verify the cytotoxicity of the acrylonitrile derivatives, the MTT reduction method was performed. Briefly, HL-60 cells were seeded in a flat-bottomed 96-well plate at a density of 10,000 cells per well. […] In a second series of experiments, cells were incubated under the same conditions but for 72 h. Etoposide was used as a positive control. Ten μL of MTT was added at a final concentration of 0.5 mg/mL, incubated at 37 °C for 4 h, and then solubilized with 10% SDS in 0.1 mM HCl and incubated overnight at 37 °C. Finally, a blue-colored compound (formazan) formation was measured at 570 nm in a multiplate reader (StatFax 4200, Awareness Technology, Inc., Palm City, FL, USA). The viability percentage was obtained as follows: Viability % = [treated cells DO × 100]/[DO cells control].

HL-60 cells = experiment: MTT cytotoxicity assay; assay type: cell-based, human; conditions: 72 h; for cytotoxicity (in words): 0.01 µM to 100 µM, MTT
Method: as §1

[1] = DPPH radical scavenging activity; assay type: physicochemical; conditions: for antioxidant effects in the pharmacological range (in words): up to 50 μM
Method: The newly synthesized compounds were evaluated for 2,2-diphenyl-1-picrylhydrazyl […] free radical scavenging activity. The reduction and stabilization of DPPH by antioxidant compounds lead to discoloration, resulting in a decrease in absorbance at 517 nm, which was expressed as a percentage of the radical solution at a given concentration of discoloration. The heteroarylacrylonitrile derivatives were re-suspended in a minimum of DMSO at a final concentration of 5 mg/mL (stock solution). From these, they were diluted to concentrations of 1000, 500, and 100 μg/mL. These solutions were mixed with a methanol solution of DPPH (20 μg/mL) for 5 min. Each compound was evaluated in triplicate; absorbance at 517 nm in a UNICAM UV/visible spectrophotometer Helios-α (Thermo Electron Corporation, Waltham, MA USA) was measured by subtracting the solvent absorbance and comparing the resulting value with that of a blank sample. The percentage of discoloration was established according to the following formula: % Radical removal or discoloration = (1 − (AM − ABM)/AC) × 100, where AM is the absorbance of the sample compound, ABM is the absorbance of the sample blank, and AC is the absorbance of the control. The degree of discoloration indicates the efficacy of the compounds studied as free radical scavengers; therefore, a percentage of discoloration of 100 indicates the maximum radical scavenging capacity and a value close to 0 indicates a zero radical scavenging capacity. Quercetin was used as a reference compound in a concentration range of 1.25 to 7.5 μg/mL.

SMILES | viability at 72 h, 100 µM (MTT cytotoxicity assay) [%] | cytotoxicity (in words) (HL-60 cells) | cytotoxicity (HL-60 cells; 1 µM (corresponding to the IC50 value)) | antioxidant capacity, DPPH discoloration (in words) [1] | antioxidant effects in the pharmacological range (in words) [1] | antioxidant capacity, DPPH discoloration ([1]; concentration range 30–300 μM) [%]
N#C/C(=C\c1cc(-c2ccccc2)on1)C(=O)c1c[nH]c2ccccc12 [Compound C6] | ~5 | non-cytotoxic | about 55% | showed antioxidant capacity only at very high concentrations | minimal | 
N#C/C(=C\c1ccncc1)C(=O)c1c[nH]c2ccccc12 [Compound C14] |  | non-cytotoxic |  | showed antioxidant capacity only at very high concentrations | minimal | 12
